Measured values from patent US20240150287A1, “N-(BENZOYL)-PHENYLALANINE COMPOUND, PHARMACEUTICAL COMPOSITION CONTAINING SAME, AND USE THEREOF” (Hangzhou Apeloa Medicine Research Institute Co., Ltd., priority 2021, published 2024).

Target: recombinant human integrin α4β7 (binding to recombinant human MAdCAM-1) (Homo sapiens (Human), UniProt P13612+P26010)
Experiment: MAdCAM-1/α4β7 integrin binding inhibition activity evaluation test (α4β7-MAdCAM-1 ELISA)
Conditions: plate-coated recombinant human MAdCAM-1, recombinant human α4β7, 2 h room temperature, free form of compound
Experimental: EXAMPLE: MADCAM-1/α4β7 INTEGRIN BINDING INHIBITION ACTIVITY EVALUATION TEST (α4β7-MADCAM-1 ELISA)
Coat the 96-well microplate (Costar) with 50 μL of recombinant human MAdCAM-1 (R&D Systems) solution per well, and incubate overnight (12-18 hours) at 4° C. Wash three times with 150 μL of TBS buffer per well. Block plate with 150 μL per well with blocking buffer for 1 h at 37° C. Wash three times with 150 μL of TBS buffer per well. Dilute the recombinant human integrin α4β7 (R&D Systems) with TBS buffer containing 0.1% bovine serum albumin (BSA), then add to the 96 well plate with 50 μL per well. Add 1 μL of test compound or DMSO, cover, incubate at room temperature for 2 h, wash three times with 150 μL of TBS buffer per well. Dilute the anti-β7 antibody (R&D Systems) with 0.1% BSA TBS buffer, then add to the 96 well plate with 50 μL per well, cover, incubate at room temperature for 1 h, wash three times with 150 μL of TBS buffer per well. Add 50 μL of streptavidin-HRP (R&D Systems) per well, incubate at room temperature for 20 min, wash three times with 150 μL of TBS buffer per well. Add 50 μL of TMB substrate solution (Sigma) per well, incubate at room temperature for 5-30 min, and add 25 μL of stop solution per well to stop the reaction. Finally, measure absorbance at 450 nm with microplate reader (SpectraMax 340PC. Molecular Devices). Repeat the test to find the binding rate of cells at each concentration when the absorbance of the well without the test substance is used as 100%, and calculate the concentration IC50 that causes 50% binding inhibition and summarize the results in Table 1.
It should be stated that, as a test compound, the free form of the compound synthesized in the above examples is used.

Chain of recombinant human integrin α4β7 (binding to recombinant human MAdCAM-1) (P13612 34-970): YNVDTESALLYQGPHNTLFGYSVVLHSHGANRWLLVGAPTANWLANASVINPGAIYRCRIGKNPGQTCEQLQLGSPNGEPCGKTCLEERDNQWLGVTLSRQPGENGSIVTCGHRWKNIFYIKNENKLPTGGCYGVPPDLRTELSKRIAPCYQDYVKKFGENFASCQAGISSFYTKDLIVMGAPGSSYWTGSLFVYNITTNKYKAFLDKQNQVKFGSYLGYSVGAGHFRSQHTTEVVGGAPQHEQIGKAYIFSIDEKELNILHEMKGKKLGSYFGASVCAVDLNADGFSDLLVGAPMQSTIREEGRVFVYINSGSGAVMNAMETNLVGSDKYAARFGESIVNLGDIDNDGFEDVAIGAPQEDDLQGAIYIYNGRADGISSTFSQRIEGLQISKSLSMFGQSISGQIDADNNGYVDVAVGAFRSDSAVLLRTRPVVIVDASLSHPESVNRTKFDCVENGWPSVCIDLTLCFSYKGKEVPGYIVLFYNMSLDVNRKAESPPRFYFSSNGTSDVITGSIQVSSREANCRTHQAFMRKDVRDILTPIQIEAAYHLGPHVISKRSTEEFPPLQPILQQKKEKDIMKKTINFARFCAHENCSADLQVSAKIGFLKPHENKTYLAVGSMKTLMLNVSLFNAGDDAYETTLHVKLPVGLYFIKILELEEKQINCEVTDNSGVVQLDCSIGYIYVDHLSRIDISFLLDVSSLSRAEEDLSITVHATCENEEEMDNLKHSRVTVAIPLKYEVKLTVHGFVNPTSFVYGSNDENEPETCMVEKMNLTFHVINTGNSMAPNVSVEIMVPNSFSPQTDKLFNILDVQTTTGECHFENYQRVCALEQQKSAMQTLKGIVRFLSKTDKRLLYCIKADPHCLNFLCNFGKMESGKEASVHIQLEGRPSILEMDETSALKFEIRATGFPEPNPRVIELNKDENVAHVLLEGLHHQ
Chain of recombinant human integrin α4β7 (binding to recombinant human MAdCAM-1) (P26010 20-723): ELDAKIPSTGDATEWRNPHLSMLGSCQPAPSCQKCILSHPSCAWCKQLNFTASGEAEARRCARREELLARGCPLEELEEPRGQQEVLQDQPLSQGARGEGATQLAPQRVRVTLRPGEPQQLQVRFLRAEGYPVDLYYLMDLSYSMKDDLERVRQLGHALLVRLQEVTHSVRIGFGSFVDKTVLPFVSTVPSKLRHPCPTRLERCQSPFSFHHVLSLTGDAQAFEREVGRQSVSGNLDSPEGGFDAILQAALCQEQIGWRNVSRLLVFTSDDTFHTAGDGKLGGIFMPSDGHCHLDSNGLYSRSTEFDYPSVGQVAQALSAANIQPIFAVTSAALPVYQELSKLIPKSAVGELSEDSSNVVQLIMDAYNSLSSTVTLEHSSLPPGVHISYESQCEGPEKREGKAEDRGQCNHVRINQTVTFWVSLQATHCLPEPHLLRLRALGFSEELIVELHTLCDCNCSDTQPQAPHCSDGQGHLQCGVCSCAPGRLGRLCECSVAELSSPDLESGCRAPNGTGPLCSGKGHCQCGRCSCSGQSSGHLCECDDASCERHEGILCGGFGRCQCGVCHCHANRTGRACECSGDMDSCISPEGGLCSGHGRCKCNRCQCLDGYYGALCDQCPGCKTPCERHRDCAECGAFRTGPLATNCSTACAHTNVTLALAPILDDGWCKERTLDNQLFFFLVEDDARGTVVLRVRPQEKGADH

IC50 [nM]	SMILES
14.3	O=C(N[C@@H](Cc1ccc(N2C(=O)C3(CC3)c3cc(F)c(F)cc32)cc1)C(=O)O)c1c(F)cccc1Cl [Example 1, (S)-2-(2-chloro-6-fluorobenzamide)-3-(4-(5′,6′-difluoro-2′-oxospirino[cyclopropane-1,3′-indoline]-1′-yl)phenyl)propionic acid]
2.57	O=C(N[C@@H](Cc1ccc(N2C(=O)C3(CC3)c3cccc(Cl)c32)cc1)C(=O)O)c1c(F)cccc1Cl [Example 2, (S)-3-(4-(7′-chloro-2′-oxospiro[cyclopropane-1,3′-indoline]-1′-yl)phenyl)-2-(2-chloro-6-fluorobenzamide) propionic acid]
5.48	COc1cccc2c1N(c1ccc(C[C@H](NC(=O)c3c(Cl)cccc3Cl)C(=O)O)cc1)C(=O)C21CC1 [Example 3, (S)-2-(2,6-dichlorobenzamido)-3-(4-(7′-methoxy-2′-oxospiro[cyclopropane-1,3′-indoline]-1′-yl)phenyl)propionic acid]
2.54	O=C(N[C@@H](Cc1ccc(N2C(=O)C3(CC3)c3ccc(F)cc32)cc1)C(=O)O)c1c(Cl)cccc1Cl [Example 4, (S)-2-(2,6-dichlorobenzamido)-3-(4-(6′-fluoro-2′-oxospiro[cyclopropane-1,3′-indoline]-1′-yl)phenyl)propionic acid]
2.87	O=C(N[C@@H](Cc1ccc(N2C(=O)C3(CC3)c3cccc(F)c32)cc1)C(=O)O)c1c(Cl)cccc1Cl [Example 5, (S)-2-(2,6-dichlorobenzoylamino)-3-(4-(7′-fluoro-2′-oxospiro[cyclopropane-1,3′-indoline]-1′-yl)phenyl)propionic acid]
5.81	O=C(N[C@@H](Cc1ccc(N2C(=O)C3(CC3)c3ccccc32)cc1)C(=O)O)c1c(Cl)cccc1Cl [Example 6, (S)-2-(2,6-dichlorobenzamido)-3-(4-(2′-oxospiro[cyclopropane-1,3′-indoline]-1′-yl)phenyl)propionic acid]
16.1	O=C(N[C@@H](Cc1ccc(N2C(=O)C3(CCOCC3)c3cccc(Cl)c32)cc1)C(=O)O)c1c(F)cccc1Cl [Example 7, (S)-3-(4-(7-chloro-2-oxo-2′,3′,5′,6′-tetrahydrospiro[indoline-3,4′-pyran]-1-yl)phenyl)-2-(2-chloro-6-fluorobenzamide)propionic acid]
17.6	O=C(N[C@@H](Cc1ccc(N2C(=O)C3(CC3)c3cc(F)c(Cl)cc32)cc1)C(=O)O)c1c(F)cccc1Cl [Example 8, (S)-3-(4-(6′-chloro-5′-fluoro-2′-oxospiro[cyclopropane-1,3′-indoline]-1′-yl)phenyl)-2-(2-chloro-6-fluorobenzamide)propionic acid]
95.5	O=C(N[C@@H](Cc1ccc(N2C(=O)C3(CC3)c3cc(F)ccc32)cc1)C(=O)O)c1c(F)cccc1Cl [Example 9, (S)-2-(2-chloro-6-fluorobenzamide)-3-(4-(5′-fluoro-2′-oxospiro[cyclopropane-1,3′-indoline]-1′-yl)phenyl)propionic acid]
38.8	CC1(C)C(=O)N(c2ccc(C[C@H](NC(=O)c3c(F)cccc3Cl)C(=O)O)cc2)c2c(Cl)cccc21 [Example 10, (S)-3-(4-(7-chloro-3,3-dimethyl-2-oxoindoline-1-yl)phenyl)-2-(2-chloro-6-fluorobenzamide)propionic acid]
3.05	CN(C)c1cc2c(cc1F)C1(CC1)C(=O)N2c1ccc(C[C@H](NC(=O)c2c(F)cccc2Cl)C(=O)O)cc1 [Example 11, (S)-2-(2-chloro-6-fluorobenzamide)-3-(4-(6′-(dimethylamino)-5′-fluoro-2′-oxospiro[cyclopropane-1,3′-indoline]-1′-yl)phenyl)propionic acid]
4.15	CN(C)c1ccc2c(c1)C1(CC1)C(=O)N2c1ccc(C[C@H](NC(=O)c2c(F)cccc2Cl)C(=O)O)cc1 [Example 12, (S)-2-(2-chloro-6-fluorobenzamide)-3-(4-(5′-(dimethylamino)-2′-oxospiro[cyclopropane-1,3′-indoline]-1′-yl)phenyl)propionic acid]
8.02	O=C(N[C@@H](Cc1ccc(N2C(=O)C3(CC3)c3ccc(F)cc32)cc1)C(=O)O)c1c(F)cccc1Cl [Example 13]
6.21	O=C(N[C@@H](Cc1ccc(N2C(=O)C3(CC3)c3cccc(F)c32)cc1)C(=O)O)c1c(F)cccc1Cl [Example 14, (S)-2-(2-chloro-6-fluorobenzamide)-3-(4-(7-fluoro-2′-oxospiro[cyclopropane-1,3′-indoline]-1′-yl)phenyl)propionic acid]
5.62	O=C(N[C@@H](Cc1ccc(N2C(=O)C3(CC3)c3ccc(F)c(F)c32)cc1)C(=O)O)c1c(F)cccc1Cl [Example 15, (S)-2-(2-chloro-6-fluorobenzamide)-3-(4-(6′,7′-difluoro-2′-oxospirino[cyclopropane-1,3′-indoline]-1′-yl)phenyl)propionic acid]
0.75	O=C(N[C@@H](Cc1ccc(N2C(=O)C3(CC3)c3cccnc32)cc1)C(=O)O)c1c(Cl)cccc1Cl [Example 16, (S)-2-(2,6-dichlorobenzamido)-3-(4-(2′-oxospiro[cyclopropane-1,3′-pyrrolo[2,3-b]pyridine]-1′(2′H)-yl)phenyl)propionic acid]
64.2	O=C(N[C@@H](Cc1ccc(N2C(=O)C3(CC3)c3cccc(Cl)c32)cc1)C(=O)O)c1c(Cl)cc(Cl)cc1Cl [Example 17, (S)-3-(4-(7′-chloro-2′-oxospiro[cyclopropane-1,3′-indoline]-1′-yl)phenyl)-2-(2,4,6-trichlorobenzoylamino)propionic acid]
11.4	O=C(N[C@@H](Cc1ccc(N2C(=O)C3(CC3)c3cccc(Cl)c32)cc1)C(=O)O)c1c(Cl)cc(N2CCOCC2)cc1Cl [Example 19, (S)-3-(4-(7′-chloro-2′-oxospiro[cyclopropane-1,3′-indoline]-1′-yl)phenyl)-2-(2,6-dichloro-4-morpholinobenzoylamino)propionic acid]
4.15	O=C(N[C@@H](Cc1ccc(N2C(=O)C3(CC3)c3cccc(Cl)c32)cc1)C(=O)O)c1c(Cl)cc(N2CC3CC2CO3)cc1Cl (stereo partly drawn) [Example 20]
23.7	O=C(N[C@@H](Cc1ccc(N2C(=O)C3(CC3)c3cccc(Cl)c32)cc1)C(=O)O)c1c(Cl)cc(N2CCC(N3CCOCC3)CC2)cc1Cl [Example 21, (S)-3-(4-(7′-chloro-2′-oxospiro[cyclopropane-1,3′-indoline]-1′-yl)phenyl)-2-(2,6-dichloro-4-(4-morpholinopiperidin-1-yl)benzoylamino)propionic acid]
1.19	Cn1c(=O)n(-c2ccc(C[C@H](NC(=O)c3c(F)cccc3Cl)C(=O)O)cc2)c2c(Cl)cccc21 [Example 22, (S)-3-(4-(7-chloro-3-methyl-2-oxo-2,3-dihydro-1H-benzo-1H-imidazol-1-yl)phenyl)-2-(2-chloro-6-fluorobenzamide)propionic acid]
143	O=C(N[C@@H](Cc1ccc(-n2c(=O)n(C3CC3)c3cc(Cl)ccc32)cc1)C(=O)O)c1c(Cl)cccc1Cl [Example 23, (S)-3-(4-(5-chloro-3-cyclopropyl-2-oxo-2,3-dihydro-1H-benzo[d]imidazol-1-yl)phenyl)-2-(2,6-dichlorobenzamido)propionic acid]
5.67	O=C(N[C@@H](Cc1ccc(-n2c(=O)n(C3CC3)c3ccc(Cl)cc32)cc1)C(=O)O)c1c(Cl)cccc1Cl [Example 24, (S)-3-(4-(6-chloro-3-cyclopropyl-2-oxo-2,3-dihydro-1H-benzo[d]imidazol-1-yl)phenyl)-2-(2,6-dichlorobenzamido)propionic acid]
7.5	O=C(N[C@@H](Cc1ccc(-n2c(=O)n(C3CC3)c3cccc(Cl)c32)cc1)C(=O)O)c1c(Cl)cccc1Cl [Example 25, (S)-3-(4-(7-chloro-3-cyclopropyl-2-oxo-2,3-dihydro-1H-benzo[d]imidazol-1-yl)phenyl)-2-(2,6-dichlorobenzamido)propionic acid]
160	Cn1c(=S)n(-c2ccc(C[C@H](NC(=O)c3c(F)cccc3Cl)C(=O)O)cc2)c2c(Cl)cccc21 [Example 26, (S)-3-(4-(7-chloro-3-methyl-2-thio-2,3-dihydro-1H-benzo[d]imidazol-1-yl)phenyl)-2-(2-chloro-6-fluorobenzoylamino)propionic acid]
8.81	O=C(N[C@@H](Cc1ccc(-n2c(=O)n(C3CC3)c3cccc(F)c32)cc1)C(=O)O)c1c(F)cccc1Cl [Example 27, (S)-2-(2-chloro-6-fluorobenzoylamino)-3-(4-(3-cyclopropyl-7-fluoro-2-oxo-2,3-dihydro-1H-benzo [d]imidazol-1-yl)phenyl)propionic acid]
10.9	O=C(N[C@@H](Cc1ccc(-n2c(=O)n(C3CCOCC3)c3cccc(Cl)c32)cc1)C(=O)O)c1c(F)cccc1Cl [Example 28, (S)-3-(4-(7-chloro-2-oxo-3-(tetrahydro-2H-pyran-4-yl)-2,3-dihydro-1H-benzo[d]imidazol-1-yl)phenyl)-2-(2-chloro-6-fluorobenzoylamino)propionic acid]
